Columns and labels:
[1] = tested on: adjuvant induced arthritis; assay: Adjuvant induced arthritis in rats (chronic inflammation accompanied by joint destruction); assay type: in vivo, rat (Royal Hart, Wistar strain); conditions: oral; for Dead/Treated At 21 Days: once daily days 0 through 13; for % Inhibition of Swelling (Primary lesion), Day 14: * significantly different from adjuvant controls
Description: Groups of three Royal Hart, Wistar strain rats weighing 200±10 grams each were injected intradermally in the right hind paw with Freund's adjuvant (dried human tubercle bacilli in a mineral oil vehicle) at a dose of 2 mg./kg. of body weight. Test compound was administered orally in a 1.5% starch vehicle at various doses once daily on days 0 through 13 post challenge. Control rats were treated in a similar manner, but given only starch vehicle. On the 14th and 21st day post challenge the diameter of the injected paw (primary lesion) was measured by micrometer caliper. The volume of inflamed paws were estimated from these measurements and the results are expressed as percent inhibition of swelling as compared to controls. At the same time, the other inflamed sites, such as ears, paws and tail (secondary lesions) were observed and each rat was graded as to degree of inflammation and swelling present. The grading is based on a scale of 0 to 24, where 0 represents a complete absence of induced arthritic nodules and 24 represents the maximum degree of inflammation. The mean grade for each treated group is calculated and the effects of each compound are expressed as percent inhibition of the control grade. Table I records the results of tests conducted with typical compounds of the present invention. These compounds appear to suppress the progression of the arthritis and associated joint deterioration.

[2] = tested on: articular cartilage breakdown by arthritic synovial tissue; assay: Synovium-cartilage test (hexoseamine/hydroxyproline ratio of cartilage cultured with arthritic synovium); assay type: cell-based, rabbit (New Zealand); conditions: Oryctolagus cuniculus; 10 mcg./ml.; 48 hours at 37° C.; mean of 3 or 4 tests; active if average greater than 50%; read-out: Mean % Inhibition (suppression of cartilage breakdown)
Description: The compounds of the invention have been tested by the synovium-cartilage test which is a modification of the method described by Dumonde, D. C. and Glynn, L. E., The Production of Arthritis in Rabbits by an Immunological Reaction to Fibrin, Brit. J. Exp. Pathol., 43, 373 (1962).
Male, New Zealand rabbits, weighing 1.6-3.0 kg. were used. The rabbits were housed in individual cages and given food and water ad libitum. The rabbits were sensitized to bovine serum albumin (BSA) by injection of 20 mg./kg. BSA in complete Freund's adjuvant. The emulsion was injected subcutaneously into multiple sites on the back. Total injection volume equaled one […]. of body weight. Between 18 and 21 days following immunization, the rabbits were challenged with an intraarticular injection of 5 mg. BSA into the right knee joint. Unanesthetized animals were restrained on their backs, and a 20-gauge, one-inch needle, with a 5 ml. syringe, was introduced into the joint and synovial fluid aspirated to determine that the synovium had been penetrated. The needle was then left in place for injection of the antigen. A 0.5 ml. portion of 10 mg./ml. BSA in sterile saline was injected into the synovial sac. The rabbits received an additional five intraarticular injections of 5 mg. BSA into the right knee at intervals of 12-16 days. Following the sixth injection the rabbits were sacrificed by an intracardiac injection of 5 ml. of a saturated solution of potassium chloride. The right knee was shaved. A longitudinal incision was made over the patellar ligament and the skin reflected under sterile conditions. The patellar ligament was cut transversely and reflected. Fascia and capsular tissue were trimmed from the lateral and medial aspects of the knee exposing the synovial membrane. The membrane was grasped with forceps, stretched laterally and then excised in a single piece on each side of the knee. The infrapatellar fat pad was removed and the joint space widened by cutting the anterior attachments of the menisci and severing the collateral cruciate ligaments. The femur and tibia were then separated and the menisci excised along with sufficient amounts of synovial tissue from the popliteal area adhering to the menisci. The tissues were immediately placed in a sterile Petri dish containing tissue culture medium composed of MEM (Earle's salts) without sodium bicarbonate,with 25 mM Hepes buffer, pH adjusted to 7.34-7.37, and antibiotics (streptomycin and neomycin, 100 units/ml.). Ten percent normal rabbit serum (NRS) was added. The tissues were rinsed three times in fresh medium plus 10% NRS, then cut into pieces of 20-30 mg.
Articular cartilage was obtained from the knees of normal, young rabbits, weighing 1.0 to 1.5 kg. The knees were shaved, the rabbits sacrificed and the joint exposed as described above. […]

[3] = tested on: arthritic paw swelling; conditions: result in words; cited from earlier work

In the case of C/C(O)=C(\C#N)C(=O)Oc1cccc(Cl)c1Cl [2-Cyano-3-hydroxycrotonic acid, 2,3-dichlorophenyl ester], the “Dead/Treated At 21 Days” value ([1]; 50 mg./kg. body weight) is reported as 11/24, the “Mean Weight Gain, Day 14” value ([1]; 50 mg./kg.) is reported as 36 grams and the “% Inhibition of Swelling (Primary lesion), Day 14” value (shortened to “% Inhibition of Swelling … Day 14”) ([1]; 50 mg./kg.) is reported as 41%. The “% Inhibition of Swelling (Primary lesion), Day 21” value (shortened to “% Inhibition of Swelling … Day 21”) ([1]; 50 mg./kg.) was 0% and the “Mean Weight Gain, Day 21” value ([1]; 50 mg./kg.) was 32 grams.

With C/C(O)=C(\C#N)C(=O)Oc1ccccc1Cl [2-Cyano-3-hydroxycrotonic acid, o-chlorophenyl ester] the “Dead/Treated At 21 Days” value ([1]; 50 mg./kg. body weight) was 0/9, the “Mean Weight Gain, Day 14” value ([1]; 50 mg./kg.) was 25 grams and the “% Inhibition of Swelling … Day 14” value ([1]; 50 mg./kg.) was 57%. For the same compound, the “% Inhibition of Swelling … Day 21” value ([1]; 50 mg./kg.) was 35% and the “Mean Weight Gain, Day 21” value ([1]; 50 mg./kg.) was 29 grams.

With C/C(O)=C(\C#N)C(=O)Oc1ccccc1F [2-Cyano-3-hydroxycrotonic acid, o-fluorophenyl ester] the inhibition at 10 µg/mL [2] was 52.3%.

COc1ccccc1OC(=O)/C(C#N)=C(/C)O [2-Cyano-3-hydroxycrotonic acid, o-methoxyphenyl ester] showed an inhibition at 10 µg/mL [2] of 49.3%.

In the case of C/C(O)=C(\C#N)C(=O)Oc1ccc(Cl)cc1 [2-Cyano-3-hydroxycrotonic acid, p-chlorophenyl ester], the “Dead/Treated At 21 Days” value ([1]; 25 mg./kg. body weight) is reported as 2/18, the “Mean Weight Gain, Day 14” value ([1]; 25 mg./kg.) is reported as 60 grams and the “% Inhibition of Swelling … Day 14” value ([1]; 25 mg./kg.) is reported as 45%. For the same compound, the “% Inhibition of Swelling … Day 21” value ([1]; 25 mg./kg.) was 0% and the “Mean Weight Gain, Day 21” value ([1]; 25 mg./kg.) was 46 grams.

COc1ccc(OC(=O)/C(C#N)=C(/C)O)cc1 [2-Cyano-3-hydroxycrotonic acid, p-methoxyphenyl ester] showed an inhibition at 10 µg/mL [2] of 58.4%.

With C/C(O)=C(\C#N)C(=O)Oc1ccc(C)cc1 [2-Cyano-3-hydroxycrotonic acid, p-tolyl ester] the inhibition at 10 µg/mL [2] was 50.3%.

For COc1ccc2c(c1)c(CC(=O)O)c(C)n2C(=O)c1ccc(Cl)cc1 [indomethacin], the arthritic paw swelling [3] is given as “inhibit arthritic paw swelling” and the “joint and bone deterioration” value [3] is given as “prevent joint and bone deterioration”.
